Laboratory results from publication PMC12693135, “Ocular Toxicity and Mechanistic Investigation for Berberine and Its Metabolite Berberrubine on Zebrafish” (Molecules, 2025).

Key:
[1] = Zebrafish embryonic developmental toxicity (mortality, LC50); set-up: species or system zebrafish (Danio rerio); settings: wild-type AB, in vivo, exposure from 6 hpf, mortality at 5 dpf, read-out: LC50 (half-lethal concentration)
Procedure: First, the half-lethal concentration (LC50) values of berberine (BBR) and berberrubine (M1) in zebrafish were calculated. Wild-type AB strain zebrafish embryos staged at 6 h post-fertilization (hpf), corresponding to the 50% epiboly stage, were exposed to BBR or M1 at different concentrations. Mortality was recorded via stereomicroscopy at 5 days post-fertilization (5 dpf).
Embryos at 6 hpf (50% epiboly stage) were grouped and exposed to incubation solutions of berberine (BBR) at concentrations of 20, 50, 100, 200, and 400 µM, or M1 at concentrations of 20, 50, 100, 200, 400, and 625 µM, until 5 dpf. The control group was treated with 0.05% DMSO in saline. All experiments were performed in three biological replicates; unless otherwise specified, each replicate included 30 larvae per treatment, resulting in a total of 90 larvae per treatment.
Wild-typed AB strain zebrafish embryos at the 6 h post-fertilization stage (6 hpf) were grouped (30 fishes per group), and BBR at the concentrations of 20, 50, 100 and 200 µM or M1 at the concentrations of 20, 50, 100, 200, 400 and 625 µM were administered by microinjection, taking 0.05% DMSO in saline as the control. The mortality was recorded everyday by SZX2 stereomicroscopy (Olympus, Hachioji-shi, Japan) until 5 dpf. Dead embryos were recorded and discarded every 24 h. […]

[2] = tested on: wild-type AB strain zebrafish ocular cells; experiment: Fluorescence microscopy for ocular cell apoptosis (acridine orange); format: in vivo, zebrafish (Danio rerio); settings: for fluorescence intensity of apoptotic ocular cells (ratio to eye area): control 0.19
Procedure: To investigate the underlying mechanism of ocular toxicity, we evaluated the proapoptotic effects of BBR and M1 on wild-type AB strain zebrafish ocular cells. Zebrafish embryos at 6 hpf were water-soluble administration with BBR (25 or 50 μM) or M1 (100 or 200 μM), and the fluorescence intensity of apoptotic ocular cells was measured at 5 dpf using confocal fluorescence microscopy (Figure 4A). […] Specifically, the fluorescence intensity (a marker of apoptotic cell abundance) was increased from 0.19 to 0.28 and 0.32 upon the treatments of 25 μM BBR and 50 μM BBR, respectively.
A total of 30 wild-type AB strain zebrafish at 6 hpf were treated with BBR at 25 or 50 μM, M1 at 100 or 200 μM, or 0.05% DMSO (control), respectively, […], with 30 larvae per treatment and three biological replicates (total 90 larvae per group). The zebrafish larvae were then stained with acridine orange. After staining, 10 larvae were randomly selected from each experimental group and imaged using a motorized-focus continuous-zoom fluorescence microscope AZ100 (Nikon, Shinagawa-ku, Japan) with the magnification of 10–40× and exposure time of 200–500 ms. The fluorescence intensity of ocular apoptotic cells and mitochondria in zebrafish larvae was measured and analyzed using NIS-Elements 6.10 (Nikon Imaging Software, Nikon, Japan).

[3] = tested on: wild-type AB strain zebrafish larvae; experiment: Zebrafish visual motor response (locomotor behavior, dark/light); format: in vivo, zebrafish (Danio rerio); settings: for swimming pattern (trajectories) upon light stimulation: first 30 s of light stimulation, compared to controls
Procedure: Wild-type larvae (6 hpf, 30 per group) were incubated with BBR at the concentrations of 20, 50, 100, and 200 µM or M1 at the concentrations of 20, 50, 100, 200, 400, and 625 µM for 5 days. At 120 hpf, larvae were tested in a 96-well plate (1 larva/well, 12 per group). After 10 min acclimation, light-dark transition tests were performed (5 min dark to 5 min light, repeated 3 times), with recordings every 1 min for 40 min. The trajectory and 1 min movement distance were recorded by Behavioral Tracking System: Daniovision, Zebralab 3.3 (ViewPoint, Civrieux, France). Data were processed in Excel (Microsoft, Redmond, WA, USA). Metrics included 1 min total distance, movement time, and average speed. Averages of 12 larvae per group were used for bar graphs; comparisons with the control group were analyzed via t-test. The experiment was conducted three times in parallel.

[4] = tested on: rabbit corneal epithelium; set-up: method as in PMID 32074824; settings: topical application of 1.5 mg/mL; cited from earlier work
zebrafish larvae eye = experiment: Zebrafish eye length and area experiment; format: in vivo, zebrafish (Danio rerio); settings: zebrafish larvae at 5 dpf vs 0.05% DMSO control; BBR 20-200 µM, M1 20-625 µM
Procedure: Half of the epiboly embryos (6 hpf under standard conditions) were exposed to solutions (2 mL) of BBR at the concentrations of 20, 50, 100, and 200 µM or M1 at the concentrations of 20, 50, 100, 200, 400, and 625 µM and cultured under standard conditions, taking 0.05% DMSO in saline as the control. The experiment was performed three times using 30 embryos per concentration (n = 90 per group in total). At 5 dpf, embryos were washed 3× with normal medium, transferred to fresh medium, and photographed by E3ISPM20000KPA digital camera (ToupTek, Hangzhou, China), with the magnification of 10–40× and exposure time of 200–500 ms. Then the eye length and area were measured and analyzed using Image J V2.1.X (NIH, Bethesda, MD, USA). Data (eye length/area) were expressed as mean ± SD, compared with the control group, and plotted.

[5] = tested on: human lens epithelial cells (HLE-B3); set-up: method as in PMID 17645667; settings: 25 μM under UVA exposure; cited from earlier work

COc1ccc2cc3[n+](cc2c1OC)CCc1cc2c(cc1-3)OCO2 [BBR, berberine]
LC50 [1]: 167 µM
fluorescence intensity of apoptotic ocular cells (ratio to eye area) ([2]; 25 μM): 0.28
fluorescence intensity of apoptotic ocular cells (ratio to eye area) ([2]; 50 μM): 0.32
average swimming speed, dark conditions ([3]; dark, 200 μM): decreased average speed
swimming distance and duration, dark conditions ([3]; dark, concentrations above 100 μM): significantly reduced
swimming pattern (trajectories) upon light stimulation [3]: irregular and disorganized swimming patterns
locomotor metrics (distance, time, speed) upon light stimulation ([3]; light stimulation, 200 μM): significant reductions in all three locomotor metrics
corneal epithelial repair [4]: delayed corneal epithelial repair
eye length and eye area (zebrafish larvae eye): significantly and dose-dependently reduced
phototoxic damage to cells [5]: severe damage

COc1ccc2cc3[n+](cc2c1O)CCc1cc2c(cc1-3)OCO2 [M1, berberrubine]
LC50 [1]: 558 µM
apoptosis in ocular cells ([2]; 200 μM compared with 100 μM): significant increase in apoptosis
average swimming distance ([3]; 625 μM): reduced average swimming distance
swimming duration ([3]; concentrations above 200 μM): decreased swimming duration
locomotion in the dark ([3]; dark, 20-625 µM): did not affect locomotion in the dark
swimming pattern (trajectories) upon light stimulation [3]: irregular and disorganized swimming patterns
eye length and eye area (zebrafish larvae eye): significantly and dose-dependently reduced
